Data: patent US6350768B1 (Aventis Pharma S.A., priority 1999, dated 2002)

Tested on: purified rat motoneurons
Conditions: BDNF 1 ng/ml
Description: The effect of the combination has been studied on the cellular death of purified rat motoneurons which is induced by sera from patients suffering from amyotrophic lateral sclerosis.
Purified motoneurons prepared from the spinal cord of rat embryos at 14 days of gestation are cultured in the presence of optimum concentrations of recombinant “brain-derived neurotrophic factor” (BDNF), one of the principal neurotrophic factors for the survival of the motoneurons. […] After a further 2 hours, dilutions of dialyzed sera from patients suffering from ALS are added. On the next day, the number of surviving motoneurons is evaluated by direct counting under a phase contrast microscope.
The stock solution of gabapentin is prepared directly by dissolving 17.1 mg of gabapentin in 1 ml of double distilled water.
Rat embryos at 14 days of gestation (Charles River, France) are recovered after sacrificing the mother, under CO2 anesthesia, by pulling the neck. These embryos are placed in phosphate buffer (“phosphate-buffered saline”, PBS) free of calcium and magnesium (Life Technologies).
Unless otherwise stated, the composition of the media used is identical to that indicated in these references. Spinal cords from rat embryos at 14 days of gestation are dissected in sterile PBS and the ventral halves of each cord containing the motoneurons are subdissected. […]

Question: For `NCC1(CC(=O)O)CCCCC1` [Gabapentin], which “Number of motoneurons, Mean (± SEM)” value (mean of 8 measurements, 4 wells, ALS serum 0.1%, Gabapentin 10^−5 M alone) is on record?
Answer: The value was 5.0.

Question: What about the “survival of the motoneurons” value (medium treated with gabapentin alone, ALS serum) of the same molecule?
Answer: The value was 8%.
